Assay results taken from publication PMC8811960, “A Novel 2-Carbon-Linked Dimeric Artemisinin With Potent Antileukemic Activity and Favorable Pharmacology” (Frontiers in Oncology, 2022).

How the values were obtained:
AML45 PDX = test: luc-labeled AML45 patient-derived xenograft; format: in vivo, NRG mice; conditions: ART631 monotherapy p=0.0029
Excerpt: Immunodeficient NOD-Rag1^nullIL2rg^null (NRG) mice were purchased from Jackson Laboratory (Bar Harbor, ME), bred and housed at the University of Maryland Baltimore. Similar to our previous publication ([20]). mice were transplanted IV with luc-labeled human AML cell lines or cryopreserved AML patient cells on day -10, and baseline total body luminescence was quantified on day 0 by Xenogen bioluminescence imaging (Xenogen IVIS Spectrum; PerkinElmer, Waltham, MA). Mice were allocated to treatment groups so that each group had similar average day 0 luminescence, then groups were administered drugs per oral (PO; gavage). Luminescence of each mouse was assessed over time and compared with that mouse’s day 0 luminescence (fold-change AML burden). Clinical behavior, appearance, weight, and survival were also monitored.
We then compared the efficacy of 15 mg/kg/d ART631 monotherapy, versus 150 mg/kg/d VEN plus 30 mg/kg/d SOR, versus ART631 combined with VEN plus SOR (i.e. SAV) at the previously indicated doses, using a luc-labeled AML45 PDX model ( Figure 9A ). […]
Figure 9 VEN plus SOR plus ART631 inhibited growth of an AML PDX. […] (A) After Xenogen quantification of baseline total body luminescence on day 0, mice were placed into balanced experimental groups prior to drug administration via gavage, then treated per our previously established MTD PO x 5 day schedule (5 days on, 9 days off). […]

[1] = Phase I microsomal stability, mouse liver microsomes; format: in vitro ADME
Procedure: (§1) The metabolic stability of ART631 was assessed in human and mouse plasma and liver microsomes (LM). For phase I microsomal stability assays, analogs (10 µM in <1% acetonitrile) were incubated in PBS containing liver microsomes, with or without cofactors ([22]). Microsomal controls (without cofactors) were used to determine non-enzymatic degradation. All experiments were incubated at 37°C for 1h and performed in duplicate. Reactions were stopped with acetonitrile and analyzed as described below.
(§2) ART631 was extracted from 25 µL plasma or microsomal solutions with 100 µL acetonitrile containing artemisinin (i.e. the natural product) as internal standard. […] Mobile phase A was ammonium acetate (2mM) containing 0.1% formic acid, and mobile phase B was acetonitrile containing 0.1% formic acid. The gradient started with mobile phase B and was held at 40% for 0.5 minutes with a flow rate of 0.4 mL/min, then increased to 100% over 1.5 minutes and held for 2.0 minutes, and finally returned back to 40% mobile phase B and allowed to equilibrate for 2.0 minutes. An AB Sciex 5500 triple quadrupole mass spectrometer operated in positive electrospray ionization mode was used for the detection of ART631. For stability studies, the ratio of ART631 to the internal standard, artemisinin, was assessed. Calibration curves for ART631 were computed using the ratio of the peak area to that of the internal standard by using a quadratic equation with a 1/x^2 weighting function over the range of 8-1585 nM with dilutions of up to 1:10 (v/v).

[2] = Phase I microsomal stability, human liver microsomes; format: in vitro ADME
Procedure: as §1, §2

MV4;11 = test: alamarBlue growth inhibition, MV4;11; format: cell-based; conditions: Homo sapiens, MV4;11, 48h, mean of 2 independent assays ± SD
Procedure: Cytotoxicity was assessed using alamarBlue assays (Life Technologies, Grand Island, NY) following manufacturer’s guidelines. Cell death was verified by Annexin V/7-aminoactinomycin D (7AAD) staining (BioLegend, San Diego, CA) per manufacturer’s guidelines.

MCL1 = test: Western blot for MCL1; format: cell-based, human; conditions: MOLM14, 200 nM, 18h, similar results in MV4;11 and ML2
Procedure: (§3) Cells were pre-treated with […] ROS detection reagent 5-(and 6-)-chloromethyl-2’,7’-dichlorodihydrofluorescein diacetate (CM-H2DCFDA, Life Technologies) for 30 min, followed by the iron chelator deferoxamine mesylate (DFO; 11 mM) for 60 min. Cells were then treated with ART631 (200 nM) or DMSO control for 18h, with subsequent analysis by flow cytometry. Western blotting and quantitative reverse transcription PCR (qRT-PCR) to assess for molecular markers of ROS-mediated apoptosis were performed as previously described ([20]).
(§4) Figure 4 ART631 elevated ROS and CHOP levels and reduced MCL1 expression in MOLM14 AML cells. (A) MOLM14 AML cells were pre-treated with ROS detection reagent CM-H2DCFDA ([…]) for 30 min, pre-treated with deferoxamine mesylate (DFO; 11 mM) for 60 min, and then treated with ART631 (200 nM) or DMSO control for 18h. They were then analyzed by flow cytometry. Graph represents %CM-H2DCFDA fluorescence compared to vehicle (DMSO) control treated cells. Error bars represent SD from 3 independent experiments. (B) MOLM14 AML cells were treated for 18h with vehicle, AS (10 uM), ART838 (200 nM), ART631 (200 nM), cytarabine (AraC; 150 nM), or SOR (5 uM). Protein was isolated and western blotted for MCL1, BCL2, CHOP, and β-actin. (C) MOLM14 cells were treated as in (B) for 18h, total RNA isolated, cDNA synthesized, and SYBR Green qRT-PCR performed in triplicates. […]

[3] = system: C/EBP homologous protein (CHOP); test: Western blot for CHOP; format: cell-based, human; conditions: MOLM14, 200 nM, 18h, similar results in MV4;11 and ML2
Procedure: as §3, §4

[4] = system: MOLM14, MV4;11, and HL60 human AML cells; set-up: method as in PMID 33560385; conditions: ART631 200 nM, VEN 50 nM, SOR 5 µM; MOLM14, MV4;11, HL60; cited from earlier work
[5] = 10 µM, 37°C, 1h, with cofactors
[6] = 10 µM, 37°C, 1h, without cofactors
[7] = NADPH-dependent phase I metabolism

C=CCO/N=C(/C[C@H]1O[C@@H]2O[C@@]3(C)CC[C@H]4[C@H](C)CC[C@@H]([C@H]1C)[C@@]24OO3)[C@H]1O[C@@H]2O[C@@]3(C)CC[C@H]4[C@H](C)CC[C@@H]([C@H]1C)[C@@]24OO3 [ART631]
survival versus vehicle (AML45 PDX): statistically significant increase in survival
percentage remaining, Phase I Metabolism MLM NADPH(+) [1, 5]: 35%
percentage remaining, Phase I Metabolism MLM NADPH(-) [1, 6]: 60%
degradation in mouse liver microsomes with co-factors [1, 7]: ~ 40%
percentage remaining, Phase I Metabolism HLM NADPH(+) [2, 5]: 60%
percentage remaining, Phase I Metabolism HLM NADPH(-) [2, 6]: 86%
degradation in human liver microsomes with co-factors [2, 7]: ~ 30%
IC50 (MV4;11): 27 ± 2 nM
MCL1 protein expression (MCL1): decreased
level of CHOP protein [3]: increase
cell death as single agents [4]: less than 15%
